Results from ChEMBL document CHEMBL2346588, “Design, synthesis, and biological activity of diaryl ether inhibitors of Toxoplasma gondii enoyl reductase” (Bioorg Med Chem Lett, 2013).
≈ marks a conversion by molar mass, not a printed value. Calls of active or inactive are those of the source. The rule behind the calls is not given here.

Experiments:
[1] = target: T1, Enoyl-acyl carrier reductase (Toxoplasma gondii) (UniProt Q6UCJ9); experiment: Inhibition of Toxoplasma gondii enoyl reductase assessed as conversion of trans-2-acyl-ACP to acyl-ACP at 1 uM
T1 sequence (whole entry): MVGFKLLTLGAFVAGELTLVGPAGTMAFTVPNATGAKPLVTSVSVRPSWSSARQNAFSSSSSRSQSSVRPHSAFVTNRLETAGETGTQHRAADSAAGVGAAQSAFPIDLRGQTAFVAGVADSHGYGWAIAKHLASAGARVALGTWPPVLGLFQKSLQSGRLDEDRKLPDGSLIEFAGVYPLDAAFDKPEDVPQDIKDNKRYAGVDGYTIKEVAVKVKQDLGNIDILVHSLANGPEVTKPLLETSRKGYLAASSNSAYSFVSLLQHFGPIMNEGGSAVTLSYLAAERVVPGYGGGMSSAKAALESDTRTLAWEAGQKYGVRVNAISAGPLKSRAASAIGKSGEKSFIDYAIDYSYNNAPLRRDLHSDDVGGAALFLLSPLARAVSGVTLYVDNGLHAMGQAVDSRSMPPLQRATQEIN

HFF = experiment: Cytotoxicity against HFF assessed as inhibition of [3H]-thymidine incorporation after 24 hrs by […] assay; format: cell-based; settings: human
Toxoplasma gondii [2] = experiment: Antiparasitic activity against Toxoplasma gondii type 1 RH expressing YFP infected in HFF assessed as inhibition of [3H]-uracil incorporation after 72 hrs by liquid scintillation counting; format: functional
[3] = target: T2, Enoyl-acyl carrier reductase (Toxoplasma gondii, UniProt Q6UCJ9); experiment: Inhibition of Toxoplasma gondii enoyl reductase assessed as conversion of trans-2-acyl-ACP to acyl-ACP
T2 sequence (Q6UCJ9 whole entry): T1 sequence (whole entry)

Plasmodium falciparum [4] = experiment: Antimalarial activity against chloroquine-resistant Plasmodium falciparum TM91C235 after 24 hrs by SYBR Green I based fluorescence assay; format: functional, organism-based; settings: TM91C235, 24 h
Toxoplasma gondii [5] = experiment: Antiparasitic activity against Toxoplasma gondii infected in BALB/c mouse assessed as reduction of parasite burden at 50 mg/kg, ip qd for 5 days; format: functional, organism-based; set-up: dose 50 mg/kg
Mus musculus = experiment: Toxicity in Toxoplasma gondii infected BALB/c mouse assessed mortality at 75 mg/kg, ip qd for 5 days measured 7 day after infection; format: organism-based; set-up: dose 75 mg/kg, route intraperitoneal; settings: in vivo, 168 h
Plasmodium falciparum [6] = experiment: Antimalarial activity against Plasmodium falciparum D6 after 24 hrs by SYBR Green I based fluorescence assay; format: functional, organism-based; settings: D6, 24 h
Toxoplasma gondii [7] = experiment: Antiparasitic activity against Toxoplasma gondii infected in BALB/c mouse assessed as reduction of parasite burden at 25 mg/kg, ip qd for 5 days; format: functional, organism-based; set-up: dose 25 mg/kg

Row | SMILES | inhibition [1] [%] | INH (HFF) [µM] | MIC50 (Toxoplasma gondii [2]) [µM] | IC50 [3] [µM] | IC50 (Plasmodium falciparum [4]) [µg/mL] | Activity (Toxoplasma gondii [5]) | Activity (Mus musculus) | IC50 (Plasmodium falciparum [6]) [µg/mL] | Activity (Toxoplasma gondii [7])
1 | CCNC(=O)c1ccc(Oc2ccc(Cl)cc2O)s1 | 75 | 10 |  |  |  |  |  |  | 
2 | Oc1cc(Cl)ccc1Oc1ccc(C(F)(F)F)cc1Cl | 95 | > 10 | 4 (≈ 1.29 µg/mL) | 0.03 |  |  |  |  | 
3 | CN1CCN(c2ccc(Oc3ccc(Cl)cc3O)cc2)CC1 | 25 | > 10 |  |  |  |  |  |  | 
4 | O=C(O)c1ccc(Oc2ccc(Cl)cc2O)s1 | 48 | > 10 | 10 (≈ 2.71 µg/mL) |  |  |  |  |  | 
5 | O=C(O)c1ccc(Oc2ccc(Cl)cc2O)o1 | 79 | > 10 | > 10 |  |  |  |  |  | 
6 | Cc1cc(NC(=O)c2ccc(Oc3ccc(Cl)cc3O)o2)no1 | 90 | > 10 | 10 (≈ 3.35 µg/mL) | 0.058 |  |  |  |  | 
7 | Oc1cc(Cl)ccc1Oc1ccc(N2CCOCC2)cc1 | 74 | > 10 | > 10 |  |  |  |  |  | 
8 | CC(=O)N1CCN(Cc2ccc(Oc3ccc(Cl)cc3O)s2)CC1 | 73 | > 10 | 5 (≈ 1.83 µg/mL) | 0.965 |  |  |  |  | 
9 | O=S(=O)(c1ccc(Oc2ccc(Cl)cc2O)cc1)N1CCCCC1 | 81 | > 10 | 10 (≈ 3.68 µg/mL) |  |  |  |  |  | 
10 | CN1CCN(Cc2ccc(Oc3ccc(Cl)cc3O)cc2)CC1 | 32 | > 10 | > 10 |  |  |  |  |  | 
11 | Oc1cc(Cl)ccc1Oc1ccc2ccccc2c1 | 91 | > 10 | 10 (≈ 2.71 µg/mL) | 0.041 |  |  |  |  | 
12 | CC(=O)N1CCN(c2ccc(Oc3ccc(Cl)cc3O)cc2)CC1 | 81 | > 10 | 1.5 (≈ 0.52 µg/mL) | 0.225 | > 10 | inactive | Toxic | > 10 | 
13 | CC(=O)N1CCN(C(=O)c2ccc(Oc3ccc(Cl)cc3O)o2)CC1 | 45 | > 10 | > 10 |  |  |  |  |  | 
14 | O=S(=O)(c1ccc(Oc2ccc(Cl)cc2O)cc1)N1CCCC1 | 78 | > 10 | 10 (≈ 3.54 µg/mL) |  |  |  |  |  | 
15 | Cn1cc(C(=O)Nc2ccc(Cl)cc2O)c(C(F)(F)F)n1 | 27 | > 10 | > 10 |  |  |  |  |  | 
16 | Oc1cc(Cl)ccc1Oc1ccc(Cl)cc1Cl [TRICLOSAN] |  | > 10 | 5 (≈ 1.45 µg/mL) |  |  |  |  |  | Active
17 | Oc1cc(Cl)ccc1Oc1ccc2ncccc2c1 | 87 | > 10 | 7.5 (≈ 2.04 µg/mL) | 0.135 |  |  |  |  | 
18 | CNC(=O)c1ccc(Oc2ccc(Cl)cc2O)o1 | 46 | > 10 | > 10 |  |  |  |  |  | 
19 | O=C(c1ccc(Oc2ccc(Cl)cc2O)s1)N1CCNCC1 | 60 | > 10 | > 10 |  |  |  |  |  | 
20 | CC(C)(C)OC(=O)N1CCN(C(=O)c2ccc(Oc3ccc(Cl)cc3O)s2)CC1 | 76 | > 10 | > 10 |  |  |  |  |  | 
